Test results taken from patent US20250215029A1 (Recludix Pharma, Inc., priority 2022, published 2025).

Key:
[1] = molecular target: T1, Recombinant STAT3 protein (STAT3 (G127-I722)) (Homo sapiens, UniProt P40763); test: STAT3 Fluorescence Polarization (FP) Assay; assay type: binding; conditions: STAT3 (G127-I722) 25 nM, probe 5-FAM-GpYLPQTV-NH2 2 nM, 45-minute incubation; read-out: STAT3 (FP assay IC50 class)
T1 construct: Recombinant STAT3 protein (STAT3 (G127-I722))
In short: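 In this competition FP format, STAT3 residues G127-I722 (25 nM) and 2 nM 5-FAM-GpYLPQTV-NH2 met test compounds for 45 min at room temperature. IC50 values result from fitting mP signal against log concentration by nonlinear regression.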

[2] = molecular target: T2, Recombinant STAT6 protein (STAT6 (W123-T658)) (Homo sapiens, UniProt P42226); test: STAT6 Fluorescence Polarization (FP) Assay; assay type: binding; conditions: STAT6 (W123-T658) 250 nM, probe 5-FAM-Ap[…]-NH2 2 nM, 45-minute incubation; read-out: STAT6 (FP assay IC50 class)
T2 construct: Recombinant STAT6 protein (STAT6 (W123-T658))
T2 sequence (P42226 123-658): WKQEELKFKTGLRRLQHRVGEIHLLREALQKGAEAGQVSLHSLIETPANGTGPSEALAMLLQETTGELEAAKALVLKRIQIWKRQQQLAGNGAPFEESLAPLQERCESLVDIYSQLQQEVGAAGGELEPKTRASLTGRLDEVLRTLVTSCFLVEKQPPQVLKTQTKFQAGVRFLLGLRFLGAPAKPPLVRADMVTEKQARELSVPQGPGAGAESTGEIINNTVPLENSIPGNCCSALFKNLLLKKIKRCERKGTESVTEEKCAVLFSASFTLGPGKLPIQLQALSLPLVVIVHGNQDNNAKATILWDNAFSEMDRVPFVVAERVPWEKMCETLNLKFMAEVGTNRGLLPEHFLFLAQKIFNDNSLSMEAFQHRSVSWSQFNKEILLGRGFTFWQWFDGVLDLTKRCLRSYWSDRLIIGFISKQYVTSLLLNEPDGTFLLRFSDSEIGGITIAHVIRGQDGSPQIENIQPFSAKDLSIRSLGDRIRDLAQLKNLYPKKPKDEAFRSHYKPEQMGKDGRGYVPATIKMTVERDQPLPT
In short: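 Displacement of a fluorescent phosphotyrosine peptide (2 nM) from 250 nM STAT6 (W123-T658) is measured by polarization after a 45-minute room-temperature incubation. Compounds are titrated serially at 1% DMSO, and IC50 values derive from regression of mP on log concentration.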

T1 sequence (P40763 127-722): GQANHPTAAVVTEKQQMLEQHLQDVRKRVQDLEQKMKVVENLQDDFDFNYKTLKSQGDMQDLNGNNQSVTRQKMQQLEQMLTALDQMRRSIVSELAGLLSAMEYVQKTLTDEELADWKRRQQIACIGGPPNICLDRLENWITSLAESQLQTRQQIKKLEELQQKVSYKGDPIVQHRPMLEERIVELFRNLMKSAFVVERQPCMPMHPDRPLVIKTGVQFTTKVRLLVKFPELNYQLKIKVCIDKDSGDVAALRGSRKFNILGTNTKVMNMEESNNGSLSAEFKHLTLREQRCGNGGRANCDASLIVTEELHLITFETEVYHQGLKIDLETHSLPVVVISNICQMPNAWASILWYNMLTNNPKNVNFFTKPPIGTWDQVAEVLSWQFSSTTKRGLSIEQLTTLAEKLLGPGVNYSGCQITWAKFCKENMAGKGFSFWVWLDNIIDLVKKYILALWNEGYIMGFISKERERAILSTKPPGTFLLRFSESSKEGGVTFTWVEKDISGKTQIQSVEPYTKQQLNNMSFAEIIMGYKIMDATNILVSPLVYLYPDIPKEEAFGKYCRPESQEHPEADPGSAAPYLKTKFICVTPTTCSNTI

Row | IC50 [1] [nM] | IC50 [2] [nM] | SMILES
1 | 100 to 1000 | 3000 to 30000 | O=C(N[C@H]1CCCC[C@H]2CC[C@@H](C(=O)N3Cc4cn(C5CC5)nc4C3)N2C1=O)c1cc2cc(C(F)(F)P(=O)(O)O)ccc2s1 [Compound 794, ((2-(((3S,6S,10aS)-3-(2-cyclopropyl-2,4,5,6-tetrahydropyrrolo[3,4-c]pyrazole-5-carbonyl)-5-oxodecahydropyrrolo [1,2-a]azocin-6-yl)carbamoyl)benzo [b]thiophen-5-yl)difluoromethyl) phosphonic acid]
2 | 100 to 1000 | 300 to 3000 | CN(Cc1cc(=O)[nH]c2ccccc12)C(=O)[C@@H]1CC[C@@H]2CCCC[C@H](NC(=O)c3cc4cc(C(F)(F)P(=O)(O)O)ccc4s3)C(=O)N21 [Compound 795, (difluoro(2-(((3S,6S,10aS)-3-(methyl((2-oxo-1,2-dihydroquinolin-4-yl)methyl)carbamoyl)-5-oxodecahydropyrrolo [1,2-a]azocin-6-yl)carbamoyl)benzo [b]thiophen-5-yl)methyl) phosphonic acid]
3 | 100 to 1000 | 3000 to 30000 | COC1(c2nncn2C)CN(C(=O)[C@@H]2CC[C@@H]3CCC[C@H](NC(=O)c4cc5cc(C(F)(F)P(=O)(O)O)ccc5s4)C(=O)N32)C1 [Compound 796, (difluoro(2-(((3S,6S,9aS)-3-(3-methoxy-3-(4-methyl-4H-1,2,4-triazol-3-yl)azetidine-1-carbonyl)-5-oxooctahydro-1H-pyrrolo[1,2-a]azepin-6-yl)carbamoyl)benzo [b]thiophen-5-yl)methyl) phosphonic acid]
4 | 100 to 1000 | 3000 to 30000 | O=C(N[C@H]1CCC[C@H]2CC[C@@H](C(=O)N3CC(c4cnccn4)C3)N2C1=O)c1cc2cc(C(F)(F)P(=O)(O)O)ccc2s1 [Compound 797, (difluoro(2-(((3S,6S,9aS)-5-oxo-3-(3-(pyrazin-2-yl)azetidine-1-carbonyl)octahydro-1H-pyrrolo[1,2-a]azepin-6-yl)carbamoyl)benzo [b]thiophen-5-yl)methyl) phosphonic acid]
5 | < 100 | 300 to 3000 | Cn1ccnc1C1CN(C(=O)[C@@H]2CC[C@@H]3CCC[C@H](NC(=O)c4cc5cc(C(F)(F)P(=O)(O)O)ccc5s4)C(=O)N32)C1 [Compound 799, (difluoro(2-(((3S,6S,9aS)-3-(3-(1-methyl-1H-imidazol-2-yl)azetidine-1-carbonyl)-5-oxooctahydro-1H-pyrrolo[1,2-a]azepin-6-yl)carbamoyl)benzo [b]thiophen-5-yl)methyl) phosphonic acid]
6 | 1000 to 10000 | 300 to 3000 | CN(Cc1cc[nH]c(=O)c1)C(=O)[C@@H]1CC[C@@H]2CCCC[C@H](NC(=O)c3cc4cc(C(F)(F)P(=O)(O)O)ccc4s3)C(=O)N21 [Compound 800, (difluoro(2-(((3S,6S,10aS)-3-(methyl((2-oxo-1,2-dihydropyridin-4-yl)methyl)carbamoyl)-5-oxodecahydropyrrolo [1,2-a]azocin-6-yl)carbamoyl)benzo [b]thiophen-5-yl)methyl) phosphonic acid]
7 | 100 to 1000 | 3000 to 30000 | O=C(N[C@H]1CCCC[C@H]2CC[C@@H](C(=O)N3Cc4cccnc4C3)N2C1=O)c1cc2cc(C(F)(F)P(=O)(O)O)ccc2s1 [Compound 801, ((2-(((3S,6S,10aS)-3-(6,7-dihydro-5H-pyrrolo[3,4-b]pyridine-6-carbonyl)-5-oxodecahydropyrrolo [1,2-a]azocin-6-yl)carbamoyl)benzo [b]thiophen-5-yl)difluoromethyl) phosphonic acid]
8 | 1000 to 10000 | 300 to 3000 | O=C(N[C@H]1CCCC[C@H]2CC[C@@H](C(=O)N3CCc4[nH]ncc4C3)N2C1=O)c1cc2cc(C(F)(F)P(=O)(O)O)ccc2s1 [Compound 802, (difluoro(2-(((3S,6S,10aS)-5-oxo-3-(4,5,6,7-tetrahydro-1H-pyrazolo[4,3-c]pyridine-5-carbonyl)decahydropyrrolo[1,2-a]azocin-6-yl)carbamoyl)benzo [b]thiophen-5-yl)methyl) phosphonic acid]
9 | < 100 | 300 to 3000 | O=C(N[C@H]1CCCC[C@H]2CC[C@@H](C(=O)N3CC(c4ccc[nH]c4=O)C3)N2C1=O)c1cc2cc(C(F)(F)P(=O)(O)O)ccc2s1 [Compound 803, (difluoro(2-(((3S,6S,10aS)-5-oxo-3-(3-(2-oxo-1,2-dihydropyridin-3-yl)azetidine-1-carbonyl)decahydropyrrolo[1,2-a]azocin-6-yl)carbamoyl)benzo [b]thiophen-5-yl)methyl) phosphonic acid]
10 | < 100 | 3000 to 30000 | N#Cc1cnc(C2CN(C(=O)[C@@H]3CC[C@@H]4CCCC[C@H](NC(=O)c5cc6cc(C(F)(F)P(=O)(O)O)ccc6s5)C(=O)N43)C2)nc1 [Compound 806, ((2-(((3S,6S,10aS)-3-(3-(5-cyanopyrimidin-2-yl)azetidine-1-carbonyl)-5-oxodecahydropyrrolo [1,2-a]azocin-6-yl)carbamoyl)benzo [b]thiophen-5-yl)difluoromethyl) phosphonic acid]

The remaining lines, values behind:

Row | SMILES | IC50 [1] [nM] | IC50 [2] [nM]
11 | CS(=O)(=O)NC1CN(C(=O)[C@@H]2CC[C@@H]3CCCC[C@H](NC(=O)c4cc5cc(C(F)(F)P(=O)(O)O)ccc5s4)C(=O)N32)C1 [Compound 787, (difluoro(2-(((3S,6S,10aS)-3-(3-(methylsulfonamido)azetidine-1-carbonyl)-5-oxodecahydropyrrolo [1,2-a]azocin-6-yl)carbamoyl)benzo [b]thiophen-5-yl)methyl) phosphonic acid] | < 100 | 300 to 3000
12 | CN(CCc1cc[nH]c(=O)c1)C(=O)[C@@H]1CC[C@@H]2CCCC[C@H](NC(=O)c3cc4cc(C(F)(F)P(=O)(O)O)ccc4s3)C(=O)N21 [Compound 788, (difluoro(2-(((3S,6S,10aS)-3-(methyl(2-(2-oxo-1,2-dihydropyridin-4-yl)ethyl)carbamoyl)-5-oxodecahydropyrrolo [1,2-a]azocin-6-yl)carbamoyl)benzo [b]thiophen-5-yl)methyl) phosphonic acid] | 1000 to 10000 | 300 to 3000
13 | O=C(N[C@H]1CCCC[C@H]2CC[C@@H](C(=O)N3Cc4ccncc4C3)N2C1=O)c1cc2cc(C(F)(F)P(=O)(O)O)ccc2s1 [Compound 789, ((2-(((3S,6S,10aS)-3-(2,3-dihydro-1H-pyrrolo[3,4-c]pyridine-2-carbonyl)-5-oxodecahydropyrrolo [1,2-a]azocin-6-yl)carbamoyl)benzo [b]thiophen-5-yl)difluoromethyl) phosphonic acid] | 100 to 1000 | 300 to 3000
14 | CS(=O)(=O)CC1CN(C(=O)[C@@H]2CC[C@@H]3CCC[C@H](NC(=O)c4cc5cc(C(F)(F)P(=O)(O)O)ccc5s4)C(=O)N32)C1 [Compound 790, (difluoro(2-(((3S,6S,9aS)-3-(3-((methylsulfonyl)methyl)azetidine-1-carbonyl)-5-oxooctahydro-1H-pyrrolo[1,2-a]azepin-6-yl)carbamoyl)benzo [b]thiophen-5-yl)methyl) phosphonic acid] | < 100 | 3000 to 30000
15 | CC(c1cc[nH]c(=O)c1)N(C)C(=O)[C@@H]1CC[C@@H]2CCCC[C@H](NC(=O)c3cc4cc(C(F)(F)P(=O)(O)O)ccc4s3)C(=O)N21 (stereo partly drawn) [Compound 791, (difluoro(2-(((3S,6S,10aS)-3-(methyl(1-(2-oxo-1,2-dihydropyridin-4-yl)ethyl)carbamoyl)-5-oxodecahydropyrrolo [1,2-a]azocin-6-yl)carbamoyl)benzo [b]thiophen-5-yl)methyl) phosphonic acid] | 100 to 1000 | 300 to 3000
16 | CC(NC(=O)[C@@H]1CC[C@@H]2CCCC[C@H](NC(=O)c3cc4cc(C(F)(F)P(=O)(O)O)ccc4s3)C(=O)N21)c1cc[nH]c(=O)c1 (stereo partly drawn) [Compound 792, (difluoro(2-(((3S,6S,10aS)-5-oxo-3-((1-(2-oxo-1,2-dihydropyridin-4-yl)ethyl)carbamoyl)decahydropyrrolo[1,2-a]azocin-6-yl)carbamoyl)benzo [b]thiophen-5-yl)methyl) phosphonic acid] | 100 to 1000 | 300 to 3000
17 | CC(C)n1cc(N(C)C(=O)[C@@H]2CC[C@@H]3CCCC[C@H](NC(=O)c4cc5cc(C(F)(F)P(=O)(O)O)ccc5s4)C(=O)N32)cn1 [Compound 793, (difluoro(2-(((3S,6S,10aS)-3-((1-isopropyl-1H-pyrazol-4-yl)(methyl)carbamoyl)-5-oxodecahydropyrrolo[1,2-a]azocin-6-yl)carbamoyl)benzo [b]thiophen-5-yl)methyl) phosphonic acid] | 1000 to 10000 | 3000 to 30000
